Here are results for 6 compounds from US20040191334A1, “Use of transhinone derivates as cholinesterase inhibitors in treating related diseases” (priority 2003, published 2004).

Broadly, the IC50 is the concentration needed to halve the response being measured. Read a high IC50 as a need for much substance.

Series [1] has as its system interleukin-12 (IL-12) and interferon-gamma (IFN-gamma) production. The settings on record: compared with cryptotanshinone and tanshinone I; cited from earlier work.
The next series has as its system Gram positive bacteria. The settings on record: broad range of Gram positive bacteria; cited from earlier work.
Series [2] deals with T1, Human acetylcholinesterase (hAChE) (Homo sapiens, UniProt P22303).
T1 construct: purchased Sigma
Put plainly: Ellman assay, human acetylcholinesterase inhibition. In kind it is biochemical. The settings on record: for effect on AChE inhibition (in words): selected active components, FIG. 2 and 3. How it is done: The screening for modest cholinesterease inhibitors by the method of Ellman assay was used. Human acetylcholinesterase (hAChE) in buffer was added to the test chemicals/TCM extract followed by the addition of acetylthiocholine (ATCI) substrates and Ellman's reagent, (5′5-dithio-bis-(2-nitrobenzoate), DTNB). The AChE inhibitory activity was monitored by the release of thiocholine which was then reacted with DTNB to form a bright yellow product. The optical densities of the color product formed was spectrophotometrically determined.
After 10 minutes, the optical densities were measured in a 96-well plate reader at 415 nm. Optical densities was inversely proportional to the inhibiting activity.
Selected active components were dissolved in 50% DMSO. 100% DMSO was not recommended in this assay as it lowers the enzyme vitality.
Ellman assay was performed on the selected active components, protocatechualdehyde (MW=138.12), cryptotanshinone (MW=296), salvianic acid B (MW=718) and dihydrotanshinone I (MW=278). 10-fold dilution was made with highest concentration at 40 μM. (FIG. 2)
10-fold dilution was made with the highest concentration at 80 μM. (FIG. 3)

The target of series [3] is T2, butrylcholinesterase (hBChE) (Homo sapiens, UniProt P06276).
T2 construct: purchased Sigma
Put plainly: Ellman assay with butrylcholinesterase (specificity). It is filed as biochemical. The settings on record: hAChE run in parallel; FIGS. 4a and 4b. The text has this: In order to test the specificity of cryptotanshinone and dihydrotanshinone I towards hAChE, butrylcholinesterase (hBChE) instead of hAChE was used in Ellman assay. hBChE is concentrated in […] and it is named as pseudoesterase as it has very homology as hAChE.
Ellman assay was preformed as mentioned, except that hBChE (commercially obtained from Sigma.) was used. Ellman assay using hAChE was also preformed in parallel for comparison.
(Ellman's reagent forms a yellow product with free thiols.)

Series [4] concerns mouse neuronal cell line N1E-115. As to the kind of experiment: MTT cytotoxicity assay on N1E-115. It is filed as cell-based. Particulars: FIG. 5b. An excerpt: (§1) MTT assay was used to check for the toxicity of the selected primary hAChE inhibitors. Since only metabolic active cell can cleave the tetrazolium salt MTT and form a formazen dye. The O.D. measure at 540 nm is directly proportional to the number of viable cell.
Background: Formazan colour is commonly taken as a measure of viable cells.

Series [5] deals with neuronal cell line-SHSY5Y. As to the kind of experiment: MTT cytotoxicity assay on SHSY5Y. In kind it is cell-based. The settings on record: FIG. 5a.
Description: as §1

T1 sequence (P22303 32-614): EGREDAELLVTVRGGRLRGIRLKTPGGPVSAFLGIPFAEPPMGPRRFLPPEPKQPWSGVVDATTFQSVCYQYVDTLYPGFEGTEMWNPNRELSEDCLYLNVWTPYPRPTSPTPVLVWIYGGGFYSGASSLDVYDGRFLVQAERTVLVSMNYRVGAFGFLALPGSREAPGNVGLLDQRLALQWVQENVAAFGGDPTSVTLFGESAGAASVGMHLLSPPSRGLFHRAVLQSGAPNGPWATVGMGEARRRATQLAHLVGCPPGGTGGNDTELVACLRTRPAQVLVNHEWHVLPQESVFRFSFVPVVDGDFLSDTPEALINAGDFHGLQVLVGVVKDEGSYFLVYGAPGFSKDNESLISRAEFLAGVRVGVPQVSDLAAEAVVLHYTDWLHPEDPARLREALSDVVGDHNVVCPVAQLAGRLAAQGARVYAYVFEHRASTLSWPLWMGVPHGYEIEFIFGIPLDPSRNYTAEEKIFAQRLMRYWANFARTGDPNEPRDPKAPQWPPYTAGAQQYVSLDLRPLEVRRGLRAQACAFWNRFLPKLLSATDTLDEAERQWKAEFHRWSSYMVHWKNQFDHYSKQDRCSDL
T2 sequence (P06276 29-602): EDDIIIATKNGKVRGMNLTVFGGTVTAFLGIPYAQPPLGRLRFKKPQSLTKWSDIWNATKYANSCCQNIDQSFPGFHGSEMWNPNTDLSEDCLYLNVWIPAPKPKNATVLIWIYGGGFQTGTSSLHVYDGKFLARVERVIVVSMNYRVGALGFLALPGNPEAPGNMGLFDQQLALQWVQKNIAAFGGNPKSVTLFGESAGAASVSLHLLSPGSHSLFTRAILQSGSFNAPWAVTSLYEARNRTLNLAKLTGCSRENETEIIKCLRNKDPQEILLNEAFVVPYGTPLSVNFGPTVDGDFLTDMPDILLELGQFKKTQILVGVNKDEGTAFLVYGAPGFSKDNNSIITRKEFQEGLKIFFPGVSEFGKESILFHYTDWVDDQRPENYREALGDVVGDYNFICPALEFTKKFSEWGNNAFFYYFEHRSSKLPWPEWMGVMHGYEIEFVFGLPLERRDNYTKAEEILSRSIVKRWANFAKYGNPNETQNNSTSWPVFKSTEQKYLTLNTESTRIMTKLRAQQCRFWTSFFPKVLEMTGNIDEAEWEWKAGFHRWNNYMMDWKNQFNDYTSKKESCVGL

Take `Cc1cccc2c3c(ccc12)C1=C(C(=O)C3=O)[C@@H](C)CO1` [dihydrotanshinone I]: the “inhibition of IL-12 and IFN-gamma production” value in series [1] is “effectively inhibit”. The antibacterial activity entry in the series with Gram positive bacteria is reported as “antibacterial activity”. In series [2], this compound registered an IC50 of 0.5 to 0.8 µM. For the same compound, in series [3], the “selectivity for AChE versus BChE” value was “higher selectivity for AChE than BChE”. In addition, the MTT cytotoxicity entry in series [4] (N1E-115, 1 μM) was “No significant cytotoxicity”; in series [5] (1 μM) it was “No significant cytotoxicity”.

For `O=Cc1ccc(O)c(O)c1` [protocatechualdehyde, reference compound], the “effect on AChE inhibition (in words)” value in series [2] is “little effect”.

As for `Cc1coc2c1C(=O)C(=O)c1c-2ccc2c1CCCC2(C)C` [tanshinone IIA, reference compound], the “effect on AChE inhibition (in words)” value in series [2] is “little effect”.

In the case of `O=C(C=Cc1ccc(O)c2c1C(C(=O)OC(Cc1ccc(O)c(O)c1)C(=O)O)C(c1ccc(O)c(O)c1)O2)OC(Cc1ccc(O)c(O)c1)C(=O)O` (centres unmarked) [salvianic acid B, reference compound], the “effect on AChE inhibition (in words)” value in series [2] is reported as “little effect”.

In the case of `C[C@H]1COC2=C1C(=O)C(=O)c1c2ccc2c1CCCC2(C)C` [cryptotanshinone], the antibacterial activity result in the series with Gram positive bacteria was “antibacterial activity”. The compound also yielded an IC50 in series [2] of 5 to 8 µM. Further, in series [3], the “selectivity for AChE versus BChE” value is listed as “higher selectivity for AChE than BChE”. The MTT cytotoxicity result in series [4] (N1E-115, 1-50 μM) was “No significant cytotoxicity”; in series [5] (1-50 μM) it was “No significant cytotoxicity”.

In series [2], `Cc1coc2c1C(=O)C(=O)c1c-2ccc2c(C)cccc12` [tanshinone I] had an IC50 of approximately 70 µM. The MTT cytotoxicity result in series [4] (N1E-115, 1 μM) is given as “No significant cytotoxicity”; in series [5] (1 μM), “No significant cytotoxicity”.
